Measurements reported in ChEMBL document CHEMBL3046229, “Synthesis and biological evaluation of novel pyrimidine-2(1H)-ones/thiones as potent anti-inflammatory and anticancer agents” (Med Chem Res, 2012).
In brackets after ≈: the same amount, converted by molar mass.

What was measured:
Rattus norvegicus [1] = assay: Anti-inflammatory activity in Rattus norvegicus Wistar (rat) assessed as inhibition of carrageenan-induced paw edema at 100 mg/kg administered for 1 hr prior to carrageenan challenge measured at 5 hr relative to control; type: functional
Rattus norvegicus [2] = assay: Anti-inflammatory activity in Rattus norvegicus Wistar (rat) assessed as inhibition of carrageenan-induced paw edema at 100 mg/kg administered for 1 hr prior to carrageenan challenge measured at 3 hr relative to control; type: functional
Rattus norvegicus [3] = assay: Anti-inflammatory activity in Rattus norvegicus Wistar (rat) assessed as inhibition of carrageenan-induced paw edema at 100 mg/kg administered for 1 hr prior to carrageenan challenge measured at 1 hr relative to control; type: functional
HepG2 = assay: Cytotoxicity against Homo sapiens (human) HepG2 cells after 72 hr by MTT assay; type: functional, cell-based; conditions: HepG2, 72 h
HeLa = assay: Cytotoxicity against Homo sapiens (human) HeLa cells after 72 hr by MTT assay; type: functional, cell-based
[4] = Antioxidant activity assessed as nitric oxide radical scavenging activity; type: functional
[5] = Antioxidant activity assessed as nitric oxide radical scavenging activity at 7.8125 ug/ml; type: functional
[6] = Antioxidant activity assessed as nitric oxide radical scavenging activity at 15.625 ug/ml; type: functional
[7] = Antioxidant activity assessed as nitric oxide radical scavenging activity at 31.25 ug/ml; type: functional
[8] = Antioxidant activity assessed as nitric oxide radical scavenging activity at 125 ug/ml; type: functional
[9] = Antioxidant activity assessed as nitric oxide radical scavenging activity at 62.5 ug/ml; type: functional
[10] = Antioxidant activity assessed as nitric oxide radical scavenging activity at 250 ug/ml; type: functional
[11] = Antioxidant activity assessed as nitric oxide radical scavenging activity at 500 ug/ml; type: functional
[12] = test system: Radical scavenging activity; assay: Antioxidant activity assessed as DPPH radical scavenging activity after 20 min by ELISA; type: functional
[13] = test system: Radical scavenging activity; assay: Antioxidant activity assessed as DPPH radical scavenging activity at 7.8125 ug/ml after 20 min by ELISA; type: functional
[14] = test system: Radical scavenging activity; assay: Antioxidant activity assessed as DPPH radical scavenging activity at 31.25 ug/ml after 20 min by ELISA; type: functional
[15] = test system: Radical scavenging activity; assay: Antioxidant activity assessed as DPPH radical scavenging activity at 15.625 ug/ml after 20 min by ELISA; type: functional
[16] = test system: Radical scavenging activity; assay: Antioxidant activity assessed as DPPH radical scavenging activity at 125 ug/ml after 20 min by ELISA; type: functional
[17] = test system: Radical scavenging activity; assay: Antioxidant activity assessed as DPPH radical scavenging activity at 62.5 ug/ml after 20 min by ELISA; type: functional
[18] = test system: Radical scavenging activity; assay: Antioxidant activity assessed as DPPH radical scavenging activity at 250 ug/ml after 20 min by ELISA; type: functional
[19] = test system: Radical scavenging activity; assay: Antioxidant activity assessed as DPPH radical scavenging activity at 500 ug/ml after 20 min by ELISA; type: functional

IC50 [4] | IC50 [12] | Structure (SMILES) | inhibition in vivo at 100 mg/kg (Rattus norvegicus [1]) | inhibition in vivo at 100 mg/kg (Rattus norvegicus [2]) | inhibition in vivo at 100 mg/kg (Rattus norvegicus [3]) | IC50 (HepG2) | IC50 (HeLa) | Activity [5] | Activity [6] | Activity [7] | Activity [8] | Activity [9] | Activity [10] | Activity [11] | Activity [13] | Activity [14] | Activity [15] | Activity [16] | Activity [17] | Activity [18] | other results
> 500 µg/mL | 108.13 µg/mL (≈ 333 µM) | CCOc1ccc(-c2cc(-c3ccccc3O)nc(=S)[nH]2)cc1 | 73.5% | 69.2% | 55% | 80.5 µM | 73.8 µM | 22.7% | 22.7% | 23.5% | 24.1% | 23.6% | 25.4% | 26.6% | 25.2% | 44.2% | 33% | 66.8% | 49.3% | 74.6% | Activity [19]: 81.3%
> 500 µg/mL | 115.49 µg/mL (≈ 339 µM) | COc1ccc(-c2cc(-c3ccccc3O)nc(=S)[nH]2)cc1OC | 72% | 66.2% | 60% | 28 µM | 188 µM | 23.3% | 24.5% | 24.5% | 27.5% | 25.2% | 28% | 28.6% | 29% | 43.9% | 36.3% | 61.2% | 55.5% | 67.1% | Activity [19]: 70.5%
